Numbered stars: 1 amine (or outer) side, 2 acyl side, 3 side chain; on linkers, the order of the positions; unused ones are H or OH. Side chains are listed from the residue outwards. Peptide text beside a SMILES is read from it. * marks the point of attachment. C20 diacid = O=C(O)CCCCCCCCCCCCCCCCCCC(=O)*; γGlu = O=C(O)[C@H](CCC(=O)[*:2])N[*:1]; AEEA = NCCOCCOCC(=O)O
Columns and labels:
Calcitonin receptor [1] = biological target: T1, Calcitonin receptor (Homo sapiens, UniProt P30988); experiment: Agonist activity at human calcitonin receptor expressed in BHK570 cells assessed as increase in intracellular cAMP concentration incubated for 3 hrs in absence of albumin by CRE luciferase reporter gene assay; format: functional, cell-based
T1 sequence (P30988 whole entry): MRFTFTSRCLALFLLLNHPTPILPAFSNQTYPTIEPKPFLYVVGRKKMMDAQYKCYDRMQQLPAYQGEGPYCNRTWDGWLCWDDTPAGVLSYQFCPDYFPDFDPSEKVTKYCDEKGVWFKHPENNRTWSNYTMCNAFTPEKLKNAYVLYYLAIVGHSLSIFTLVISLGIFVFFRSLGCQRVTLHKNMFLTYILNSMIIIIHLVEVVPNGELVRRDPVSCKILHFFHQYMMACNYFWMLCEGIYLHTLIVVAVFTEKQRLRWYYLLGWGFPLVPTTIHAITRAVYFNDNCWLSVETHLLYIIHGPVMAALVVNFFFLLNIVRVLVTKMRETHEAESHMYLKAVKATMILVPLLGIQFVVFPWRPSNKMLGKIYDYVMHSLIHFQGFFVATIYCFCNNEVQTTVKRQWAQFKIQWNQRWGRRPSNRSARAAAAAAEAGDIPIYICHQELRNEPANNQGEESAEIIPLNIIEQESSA

[2] = Solubility in 100 mM bistrispropane buffer at pH 6.0 incubated for 18 hrs by UPLC analysis; format: physicochemical
[3] = Solubility in 100 mM bistrispropane buffer at pH 7.5 incubated for 18 hrs by UPLC analysis; format: physicochemical
[4] = Solubility in 100 mM bistrispropane buffer at pH 6.5 incubated for 18 hrs by UPLC analysis; format: physicochemical
Calcitonin receptor [5] = biological target: T1, Calcitonin receptor; experiment: Agonist activity at human calcitonin receptor expressed in BHK570 cells assessed as increase in intracellular cAMP concentration incubated for 3 hrs in presence of 10% FBS by CRE luciferase reporter gene assay; format: functional, cell-based
[6] = Solubility in 100 mM glycylglycine buffer at pH 4.0 incubated for 18 hrs by UPLC analysis; format: physicochemical
[7] = biological target: T2, Amylin receptor AMY3; CALCR/RAMP3 (Rattus norvegicus, UniProt P32214+Q9JJ73); experiment: Displacement of [125I]-labeled rat amylin from rat amylin receptor expressed in BHK tkts13 cell membranes co-expressing RAMP3 incubated for 120 mins by scintillation proximity assay
T2 sequence (P32214 whole entry): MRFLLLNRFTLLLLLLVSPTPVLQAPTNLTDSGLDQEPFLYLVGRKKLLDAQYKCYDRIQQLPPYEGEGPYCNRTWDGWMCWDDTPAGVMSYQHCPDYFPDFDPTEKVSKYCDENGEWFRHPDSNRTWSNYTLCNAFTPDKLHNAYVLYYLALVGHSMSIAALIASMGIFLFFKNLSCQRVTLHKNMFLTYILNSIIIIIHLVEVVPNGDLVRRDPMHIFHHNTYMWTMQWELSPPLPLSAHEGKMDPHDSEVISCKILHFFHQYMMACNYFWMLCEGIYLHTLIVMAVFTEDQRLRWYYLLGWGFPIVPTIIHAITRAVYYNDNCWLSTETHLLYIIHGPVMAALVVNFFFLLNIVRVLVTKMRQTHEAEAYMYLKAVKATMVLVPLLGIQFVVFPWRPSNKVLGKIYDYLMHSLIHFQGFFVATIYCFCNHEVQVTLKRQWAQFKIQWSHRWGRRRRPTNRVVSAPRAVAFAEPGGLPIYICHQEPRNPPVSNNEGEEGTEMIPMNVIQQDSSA
T2 sequence (Q9JJ73 whole entry): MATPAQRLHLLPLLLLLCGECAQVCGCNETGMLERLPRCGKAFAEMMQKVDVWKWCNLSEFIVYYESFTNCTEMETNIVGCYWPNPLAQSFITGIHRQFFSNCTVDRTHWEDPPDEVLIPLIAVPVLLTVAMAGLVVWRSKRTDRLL

[8] = Solubility in 100 mM bistrispropane buffer at pH 7.0 incubated for 18 hrs by UPLC analysis; format: physicochemical
[9] = biological target: T3, Amylin receptor AMY3; CALCR/RAMP3 (Homo sapiens, UniProt O60896+P30988); experiment: Agonist activity at human amylin receptor expressed in BHK570 cells co-expressing RAMP3 assessed as increase in intracellular cAMP concentration incubated for 3 hrs in absence of albumin by CRE luciferase reporter gene assay; format: functional, cell-based
T3 sequence (P30988 whole entry): T1 sequence (P30988 whole entry)
T3 sequence (O60896 whole entry): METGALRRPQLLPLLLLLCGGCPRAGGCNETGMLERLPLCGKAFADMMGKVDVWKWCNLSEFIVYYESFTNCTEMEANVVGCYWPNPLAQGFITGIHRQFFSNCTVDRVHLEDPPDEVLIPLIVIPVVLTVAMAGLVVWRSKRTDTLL

Calcitonin receptor [10] = biological target: T1, Calcitonin receptor; experiment: Displacement of [125I]-labeled human calcitonin from human calcitonin receptor expressed in BHK tkts13 cell membranes incubated for 1 hr by scintillation proximity assay
[11] = biological target: T3, Amylin receptor AMY3; CALCR/RAMP3; experiment: Agonist activity at human amylin receptor expressed in BHK570 cells co-expressing RAMP3 assessed as increase in intracellular cAMP concentration incubated for 3 hrs in presence of 10% FBS by CRE luciferase reporter gene assay; format: functional, cell-based
[12] = Solubility in 100 mM glycylglycine buffer at pH 3.0 incubated for 18 hrs by UPLC analysis; format: physicochemical
[13] = Stability in pH 7.5 buffer assessed as compound recovery at 1 uM by Thioflavin T based fluorescence assay; format: physicochemical; details: read-out: Drug recovery
[14] = Solubility in 100 mM bistrispropane buffer at pH 8.0 incubated for 18 hrs by UPLC analysis; format: physicochemical
[15] = Stability in pH 7.5 buffer assessed as lag time for fibril formation at 1 uM by Thioflavin T based fluorescence assay; format: physicochemical; details: pH 7.5, 1 µM
[16] = Solubility in 100 mM glycylglycine buffer at pH 5.0 incubated for 18 hrs by UPLC analysis; format: physicochemical
Rattus norvegicus [17] = experiment: Reduction in food intake in Sprague-Dawley rat at 3 nmol/kg measured 0 to 24 hrs post dose relative to control; format: functional; design: scale not given: the % may be the effect or the level left
Rattus norvegicus [18] = experiment: Reduction in food intake in Sprague-Dawley rat at 3 nmol/kg measured 24 to 48 hrs post dose relative to control; format: functional; design: scale not given: the % may be the effect or the level left

Structure (SMILES)	EC50 (Calcitonin receptor [1]) [nM]	solubility at 18 h [2] [µM]	solubility at 18 h [3] [µM]	solubility at 18 h [4] [µM]	EC50 (Calcitonin receptor [5]) [nM]	solubility at 18 h [6] [µM]	IC50 [7] [nM]	solubility at 18 h [8] [µM]	EC50 [9] [nM]	IC50 (Calcitonin receptor [10]) [nM]	EC50 [11] [nM]	solubility at 18 h [12] [µM]	remaining at 1 µM [13] [%]	solubility at 18 h [14] [µM]	Time [15] [h]	solubility at 18 h [16] [µM]	Activity (Rattus norvegicus [17]) [%]	Activity (Rattus norvegicus [18]) [%]
CC(C)C[C@H](NC(=O)[C@H](C)NC(=O)[C@H](C)NC(=O)[C@@H](NC(=O)[C@H](CO)NC(=O)[C@H](CC(C)C)NC(=O)[C@H](CCC(=O)O)NC(=O)[C@H](CO)NC(=O)[C@H](C)NC(=O)COCCOCCNC(=O)CC[C@H](NC(=O)CCCCCCCCCCCCCCCCCCC(=O)O)C(=O)O)[C@@H](C)O)C(=O)NCC(=O)N[C@@H](CCCNC(=N)N)C(=O)N[C@@H](CC(C)C)C(=O)N[C@@H](CO)C(=O)N[C@@H](C)C(=O)N[C@@H](CCC(=O)O)C(=O)N[C@@H](CC(C)C)C(=O)N[C@@H](Cc1cnc[nH]1)C(=O)N[C@@H](CCC(=O)O)C(=O)N[C@@H](CC(C)C)C(=O)N[C@@H](C)C(=O)N[C@H](C(=O)N[C@@H](CC(C)C)C(=O)N1CCC[C@H]1C(=O)N[C@@H](CCCNC(=N)N)C(=O)N[C@H](C(=O)N[C@@H](CCC(=O)O)C(=O)N[C@H](C(=O)NCC(=O)N[C@@H](CO)C(=O)NCC(=O)N[C@@H](CO)C(=O)N1CCC[C@H]1C(N)=O)[C@@H](C)O)[C@@H](C)O)[C@@H](C)O ({C20 diacid-γGlu-AEEA}-ASELSTAALGRLSAELHELATLPRTETGSGSP-NH2)	0.018	≥ 200	≥ 200	≥ 200	0.03	≥ 200	0.146	≥ 200	0.027	0.085	0.073	≥ 200	100	≥ 200	> 45	≥ 200		
CC(C)C[C@H](NC(=O)[C@H](C)NC(=O)[C@H](C)NC(=O)[C@@H](NC(=O)[C@H](CO)NC(=O)[C@H](CC(C)C)NC(=O)[C@H](CCC(=O)O)NC(=O)[C@H](CO)NC(=O)[C@H](C)NC(=O)CC[C@H](NC(=O)CCCCCCCCCCCCCCCCCCC(=O)O)C(=O)O)[C@@H](C)O)C(=O)NCC(=O)N[C@@H](CCCNC(=N)N)C(=O)N[C@@H](CC(C)C)C(=O)N[C@@H](CO)C(=O)N[C@@H](C)C(=O)N[C@@H](CCC(=O)O)C(=O)N[C@@H](CC(C)C)C(=O)N[C@@H](Cc1cnc[nH]1)C(=O)N[C@@H](CCC(=O)O)C(=O)N[C@@H](CC(C)C)C(=O)N[C@@H](C)C(=O)N[C@H](C(=O)N[C@@H](CC(C)C)C(=O)N1CCC[C@H]1C(=O)N[C@@H](CCCNC(=N)N)C(=O)N[C@H](C(=O)N[C@@H](CCC(=O)O)C(=O)N[C@H](C(=O)NCC(=O)N[C@@H](CO)C(=O)NCC(=O)N[C@@H](CO)C(=O)N[C@@H](Cc1ccc(O)cc1)C(N)=O)[C@@H](C)O)[C@@H](C)O)[C@@H](C)O ({C20 diacid-γGlu}-ASELSTAALGRLSAELHELATLPRTETGSGSY-NH2)	0.037	≥ 200	≥ 200	≥ 200	0.049	≥ 200	0.029	≥ 200	0.046	0.113	0.062	≥ 200	100	≥ 200	> 45			
CC(C)C[C@H](NC(=O)[C@H](C)NC(=O)[C@H](C)NC(=O)[C@@H](NC(=O)[C@H](CO)NC(=O)[C@H](CC(C)C)NC(=O)[C@H](CCC(=O)O)NC(=O)[C@H](CO)NC(=O)[C@H](C)N)[C@@H](C)O)C(=O)NCC(=O)N[C@@H](CCCNC(=N)N)C(=O)N[C@@H](CC(C)C)C(=O)N[C@@H](CO)C(=O)N[C@@H](C)C(=O)N[C@@H](CCC(=O)O)C(=O)N[C@@H](CC(C)C)C(=O)N[C@@H](Cc1cnc[nH]1)C(=O)N[C@@H](CCCCNC(=O)CC[C@H](NC(=O)CCCCCCCCCCCCCCCCCCC(=O)O)C(=O)O)C(=O)N[C@@H](CC(C)C)C(=O)N[C@@H](C)C(=O)N[C@H](C(=O)N[C@@H](CC(C)C)C(=O)N1CCC[C@H]1C(=O)N[C@@H](CCCNC(=N)N)C(=O)N[C@H](C(=O)N[C@@H](CCC(=O)O)C(=O)N[C@H](C(=O)NCC(=O)N[C@@H](CO)C(=O)NCC(=O)N[C@@H](CO)C(=O)N1CCC[C@H]1C(N)=O)[C@@H](C)O)[C@@H](C)O)[C@@H](C)O (H-ASELSTAALGRLSAELHK([γGlu-C20 diacid])LATLPRTETGSGSP-NH2)	0.019	≥ 200	≥ 200	≥ 200	0.028	≥ 200	0.455	≥ 200		0.085	0.049	≥ 200	100	≥ 200	> 45	≥ 200		
CC(C)C[C@H](NC(=O)CNC(=O)[C@H](CO)NC(=O)[C@H](C)NC(=O)CC[C@H](NC(=O)CCCCCCCCCCCCCCCCCCC(=O)O)C(=O)O)C(=O)N[C@@H](CO)C(=O)N[C@H](C(=O)N[C@@H](C)C(=O)N[C@H](C(=O)N[C@@H](CC(C)C)C(=O)NCC(=O)N[C@@H](CCCCN)C(=O)N[C@@H](CC(C)C)C(=O)N[C@@H](CO)C(=O)N[C@@H](CCC(N)=O)C(=O)N[C@@H](CCC(=O)O)C(=O)N[C@@H](CC(C)C)C(=O)N[C@@H](Cc1cnc[nH]1)C(=O)N[C@@H](CCC(=O)O)C(=O)N[C@@H](CC(C)C)C(=O)N[C@@H](CCC(N)=O)C(=O)N[C@H](C(=O)N[C@@H](Cc1ccc(O)cc1)C(=O)N1CCC[C@H]1C(=O)N1CCC[C@H]1C(=O)N[C@H](C(=O)N[C@@H](CCC(=O)O)C(=O)N[C@H](C(=O)NCC(=O)N[C@@H](CO)C(=O)NCC(=O)N[C@H](C(=O)N[C@@H](Cc1ccc(O)cc1)C(N)=O)[C@@H](C)O)[C@@H](C)O)[C@@H](C)O)[C@@H](C)O)C(C)C)[C@@H](C)O ({C20 diacid-γGlu}-ASGLSTAVLGKLSQELHELQTYPPTETGSGTY-NH2)	0.015	≥ 200	≥ 200	≥ 200	0.062		0.385	≥ 200	0.018	0.651	0.154	≥ 200		≥ 200		≥ 200	8	9
